Results reported in paper PMC8587101, “Design and Synthesis of Novel Betulin Derivatives Containing Thio-/Semicarbazone Moieties as Apoptotic Inducers through Mitochindria-Related Pathways” (Molecules, 2021).
Several values for one entry are separate records, joined by “and”; a condition that tells them apart may be missing. Identical values can stand only once. Entries after “also recorded” stand apart in the source; their conditions may differ. Like-named read-outs stand apart in the source and are kept apart here.

Assays:
[1] = test system: human breast carcinoma cells (MCF-7); assay: MTT cytotoxicity assay, MCF-7; format: cell-based; details: for IC50: MTT, 48 h, means ± SD of three experiments, read-out: IC50 (μM) MCF-7
[2] = test system: human lung carcinoma cells (A549); assay: MTT cytotoxicity assay, A549; format: cell-based; details: A549, MTT, 48 h, means ± SD of three experiments, read-out: IC50 (μM) A549
[3] = test system: human colorectal cells (HCT-116); assay: MTT cytotoxicity assay, HCT-116; format: cell-based; details: HCT-116, MTT, 48 h, means ± SD of three experiments, read-out: IC50 (μM) HCT-116
[4] = test system: normal human gastric epithelial cells (GES-1); assay: MTT cytotoxicity assay, GES-1 normal cells; format: cell-based; details: GES1, MTT, 48 h, normal cells, means ± SD of three experiments, “-” not active, read-out: IC50 (μM) GES-1
[5] = test system: MCF-7 cells; assay: Annexin V-FITC/PI apoptosis analysis by flow cytometry; format: cell-based, human; details: 24 h, control 10.54%
Procedure: In order to confirm whether tumor cell apoptosis was induced by compound 8f in tumor cells, the MCF-7 cells were stained in sequence with Annexin V-FITC (AV) and propidium iodide (PI). MCF-7 cells deal with compound 8f by gradient concentration (0, 3, 6 and 12 μM) for 24 h, and the rates of apoptotic cells were detected by flow cytometry.
Apoptosis was determined by staining cells with an Annexin VFITC/PI detection kit (BD Biosciences, San Jose, CA, USA). Briefly, MCF-7 cells were seeded on six-well plates (6 × 10^4 cells/mL) and incubated with compound 8f (0, 3, 6 and 12 μM) for 24 h. Cells were washed twice with cold PBS and resuspended in 500 μL of 1 × binding buffer, and then 10 μL of Annexin V-FITC and 5 μL of PI were applied to stain the cells for 15 min at room temperature in the dark. The status of stained cells was analyzed using a flow cytometer (BD, FACSCalibur, San Jose, CA, USA).

[6] = test system: MCF-7 cells; assay: Mitochondrial membrane potential (MMP) assay, JC-1, flow cytometry; format: cell-based, human; details: 24 h
Procedure: Mitochondria dysfunction has been proven to be an important role in inducing apoptosis in tumor cells. The loss of mitochondrial membrane potential (MMP) has been considered to be an early manifestation of mitochondrial dysfunction in apoptotic process. Thus, we tried to explore the contribution of mitochondria in compound-8f-induced apoptosis in MCF-7 cells. JC-1 cationic dye is an ideal MMP-sensitive probe, which can measure the MMP lost by flow cytometry.
MCF-7 cells were cultured into 12-well plates at a concentration of 1 × 10^6 cells/well of the RPMI-1640 medium. Then, cells were co-cultured with compound 8f (0, 3, 6 and 12 µM) for 24 h. After treatment, cells were stained with 3 µM cationic dye JC-1 at room temperature in the dark for 30 min according to the manufacturer’s instructions (BD Biosciences, San Jose, CA, USA). Finally, cells were harvested and washed with PBS twice, and then the results were recorded by flow cytometry analysis.

[7] = test system: MCF-7 cells; assay: ROS level assay, H2DCFDA, flow cytometry; format: cell-based, human; details: MCF-7, 12 μM, 24 h; control group 2.61%
Procedure: In the past years, many studies reported that intracellular amounts of reactive oxygen species (ROS) play an important role in some kinds of biological processes in tumor cells. […] Therefore, we explored if ROS stimulated by compound 8f induced apoptosis in MCF-7 cells. Cells were treated with compound 8f by gradient concentration (0, 3, 6 and 12 μM) for 24 h and then using H2DCFDA staining analysis by flow cytometry.
MCF-7 cells were cultured into 12-well plate at a concentration of 1 × 10^6 cells/well for 24 h of the RPMI-1640 medium with 10% FBS. Then, cells were co-cultured with compound 8f (0, 3, 6 and 12 µM) for 24 h. Then, the MCF-7 cells were stained with 5 µM H2DCFDA solution (400 µL/well) at room temperature in the dark for 30 min. The cells were harvested and washed with PBS twice according to the manufacturer’s instructions (Thermo Fisher Scientific, Waltham, MA, USA). The results were obtained by flow cytometry.

[8] = test system: MCF-7 cells; assay: Western blot of apoptosis-related proteins; format: cell-based, human; details: MCF-7, 3, 6 and 12 µM, 24 h, GAPDH internal control
Procedure: To further explore the molecular mechanism of compound-8f-induced apoptosis in MCF-7 cells, the expression levels of the related apoptotic proteins Bcl-2, Bax, P53, caspase-3, caspase-9, cleaved caspase-3, cleaved caspase-9 and cytochrome c under treatment of compound 8f were carried out. MCF-7 cells were co-cultured with compound 8f at the gradient concentrations of 3, 6 and 12 µM for 24 h, and the related apoptotic proteins expression levels were tested by means of Western blotting. The GAPDH expression level was used as an internal control group. […] Meanwhile, the cleavage forms of the caspase proteins were evaluated (Figure 10). Compound 8f could also activated the expression levels of both cleaved caspase-3 and cleaved caspase-9 in a dose-dependent manner.
After treatment with compound 8f (0, 3, 6 and 12 µM), MCF-7 cells were harvested and lysed in RIPA buffer and boiled for 10 min at 100 °C. Equal amount of protein ([…]) were separated on a 10% SDS-PAGE gel and transferred to nitrocellulose membranes. The membranes were blocked with 5% BSA and probed with a 1:1000 dilution of primary antibody against Cl-caspase-3 (Cell Singaling Technology, Inc., Danvers, MA, USA), Cl-caspase-9 (Cell Singaling Technology Inc), P53 (Cell Singaling Technology, Inc; Danvers, MA, USA), Bcl-2 (Santa Cruz Biotechnology, Inc; Santa Cruz, CA, USA), Cytochrome c (Proteintech Group, Inc; Rosemont, IL, USA) and Bax (Proteintech Group, Inc; Rosemont, IL, USA). Then, the membranes were incubated with a 1:5000 dilution of horseradish peroxidase-conjugated secondary antibody for 2 h. Positive bands were visualized on a X-ray film using an enhanced chemiluminescence system (Kodak).

[9] = test system: MCF-7 cells; assay: AO/EB staining, fluorescence microscope; format: cell-based, human; details: MCF-7, 0, 3, 6 and 12 μM, 24 h
Procedure: Firstly, the Acridine Orange/Ethidium Bromide (AO/EB) staining of MCF-7 cells treated with compound 8f was observed under a fluorescence microscope. A large number of normal cells in the control group were stained green and their nuclei were intact.
The MCF-7 cells in the logarithmic growth phase were cultured into 6-well plates (5 × 10^4 cells/mL). The cells incubated for overnight at 37 °C in an atmosphere of 5% CO2. Then the MCF-7 cells were treated with compound 8f (0, 3, 6 and 12 μM) for 24 h. The cover slip with monolayer MCF-7 cells was inverted on the glass slide with 20 μL of AO/BE stain (100 μg/mL). The fluorescence intensity was read using a fluorescence microscope (Zeiss, Oberserve A1, Oberkochen, Germany).

Compound: C=C(C)[C@@H]1CC[C@]2(/C=N/NC(=S)Nc3cccc(Cl)c3)CC[C@]3(C)[C@H](CC[C@@H]4[C@@]5(C)CC[C@H](O)C(C)(C)[C@@H]5CC[C@]43C)[C@@H]12 [Compound 8f, Lup-20(29)-ene-3β-ol-28-N-(3-chlorophenyl)thiosemicarbazide]
- IC50 ([1]; Homo sapiens, MCF7, 48 h): < 10 µM
- fold more potent than betulin ([1]; MCF-7, ratio of IC50 values): 3.32 fold
- IC50 [1]: 5.96 µM and 5.86 µM
- IC50 [2]: 10.4 ± 0.74 µM
- IC50 [3]: 24.7 ± 0.9 µM
- IC50 [4]: 215 ± 6.28 µM
- percentage of apoptosis cells ([5]; MCF-7, 3 μM): 13.20%
- percentage of apoptosis cells ([5]; MCF-7, 12 μM): 48.66%
- JC-1 fluorescence intensity (upper quadrant) ([6]; MCF-7, 3 μM): 79.00%
- JC-1 fluorescence intensity (upper quadrant) ([6]; MCF-7, 12 μM): 47.06%
- generation of ROS level [7]: 75.22%
- expression level of Bax [8]: upregulation; also recorded: increased
- expression level of Bcl-2 [8]: downregulation; also recorded: suppressed
- expression level of P53 [8]: upregulation; also recorded: increased
- expression level of caspase-3 [8]: activation; also recorded: activated
- expression level of caspase-9 [8]: activation; also recorded: activated
- expression level of cleaved caspase-3 [8]: activation; also recorded: activated
- expression level of cleaved caspase-9 [8]: activation; also recorded: activated
- expression level of cytochrome c (cyt-c) [8]: upregulation; also recorded: increased
- AO/EB staining, cell morphology [9]: some cells showed apoptotic characteristics
